Source: patent US9844566B2, “Pharmaceutical composition for the preparation of infusion solutions of antimicrobial preparations, its production process (variations)” (priority 2011, dated 2017)

Columns and labels:
Assay type in all cases: in vivo
[1] = test system: Escherichia coli (ATCC No25922 F-50); test: Experimental sepsis model in mice, E. coli: survival on the seventh day; settings: for Mice survival rate on the 7th day of infection, E. coli: mice infected i.v. 8×10^8 CFU/mouse, i.v. treatment daily for 3 days; for Mice survival on the 7th day, absolute values (survival rate/infected animals), E. coli: survivors/infected mice
Method: (§1) Determination of therapeutic efficiency of antimicrobial agents was done on experimental models of sepsis and methods for statistical treatment of the obtained results (χ^2) according to [R19 and R20].
(§2) Microgerms. Staphylococcus aureus (ATCC No 25923 F-49), Escherichia coli (ATCC No25922 F-50), Pseudomonas aeruginosa (ATCC No 27853 F-51), Candida albicans (ATCC No 24433).
(§3) Animals. The experiments were carried out on hybrid mice (CBA×C57Black/6)CBF1 according to the “Regulations for test animals use” (USSR Ministry of health, order supplement No 755 from Dec. 8, 1977).
(§4) Experimental sepsis models. Tested mice were injected intravenously 0.8 ml of P. aeruginosa daily culture suspension with a dosage 5×10^8 CFU/mouse or S. aureus daily culture suspension with a dosage 10^10 CFU/mouse or E. coli daily culture suspension with a dosage 8×10^8 CFU/mouse or Candida albicans daily culture suspension with a dosage 10^10 CFU/mouse. Mice of a control group were injected the 0.9% solution of NaCl or 5% dextrose solution in the volume of 0.8 ml.
(§5) In a day after being infected, during 3 days, the tested mice were daily intravenously injected with the indicated above antimicrobial preparations, dissolved in 0.9% solution of NaCl or in 5% dextrose solution, as well as their solutions prepared based on the pharmaceutical composition (as described hereinabove).
(§6) All beta-lactams were injected daily in the amount of 0.2 mg/mouse, amikacin sulfate in the amount of 2 mg/mouse daily, vancomycin in the amount of 1 mg/mouse daily, fosfomycin in the amount of 2 mg/mouse daily, and voriconazole in the amount of 0.1 mg/mouse contained in 0.5 ml of solution. Following the same order, the control group was injected with 0.9% NaCl solution or 5% dextrose solution, as well as water solutions of the pharmaceutical composition in the volume of 0.5 ml.
(§7) The antibacterial therapy efficiency was evaluated based on the number of surviving mice on the seventh day after being infected [R19, R20].
(§8) The obtained data shown in Tables 3 and 4 reflect the results of three independent experiments (at least 30 test animals were used for research of each inventive pharmaceutical preparation).

[2] = test system: Pseudomonas aeruginosa (ATCC No 27853 F-51); test: Experimental sepsis model in mice, P. aeruginosa: survival on the seventh day; settings: for Mice survival rate on the 7th day of infection, P. aeruginosa: mice infected i.v. 5×10^8 CFU/mouse, i.v. treatment daily for 3 days; for Mice survival on the 7th day, absolute values (survival rate/infected animals), P. aeruginosa: survivors/infected mice
Method: as §1, §2, §3, §4, §5, §6, §7, §8

[3] = test system: Staphylococcus aureus (ATCC No 25923 F-49); test: Experimental sepsis model in mice, S. aureus: survival on the seventh day; settings: for Mice survival rate on the 7th day of infection, S. aureus: mice infected i.v. 10^10 CFU/mouse, i.v. treatment daily for 3 days; for Mice survival on the 7th day, absolute values (survival rate/infected animals), S. aureus: survivors/infected mice
Method: as §1, §2, §3, §4, §5, §6, §7, §8

[4] = test system: Candida albicans (ATCC No 24433); test: Experimental mycotic sepsis model in mice, Candida albicans: survival on the seventh day; settings: for Mice survival rate on the 7th day of infection, Candida albicans: mice infected i.v. 10^10 CFU/mouse, i.v. treatment daily for 3 days; for Mice survival on the 7th day, absolute values (survival rate/infected animals), Candida albicans: survivors/infected mice
Method: as §1, §2, §3, §4, §5, §6, §7, §8

[5] = Table 3 (0.9% NaCl or NaCl:Colloidal silica)
[6] = Table 4 (5% dextrose or Dextrose:Colloidal silica)

| Compound | Mice survival rate on the 7th day of infection, E. coli [1, 5] [%] | Mice survival on the 7th day, absolute values (survival rate/infected animals), E. coli [1, 5] | Mice survival rate on the 7th day of infection, E. coli [1, 6] [%] | Mice survival on the 7th day, absolute values (survival rate/infected animals), E. coli [1, 6] | Mice survival rate on the 7th day of infection, P. aeruginosa [2, 5] [%] | Mice survival on the 7th day, absolute values (survival rate/infected animals), P. aeruginosa [2, 5] | Mice survival rate on the 7th day of infection, P. aeruginosa [2, 6] [%] | Mice survival on the 7th day, absolute values (survival rate/infected animals), P. aeruginosa [2, 6] | Mice survival rate on the 7th day of infection, S. aureus [3, 5] [%] | Mice survival on the 7th day, absolute values (survival rate/infected animals), S. aureus [3, 5] | Mice survival rate on the 7th day of infection, S. aureus [3, 6] [%] | Mice survival on the 7th day, absolute values (survival rate/infected animals), S. aureus [3, 6] | Mice survival rate on the 7th day of infection, Candida albicans [4, 5] [%] | Mice survival on the 7th day, absolute values (survival rate/infected animals), Candida albicans [4, 5] | Mice survival rate on the 7th day of infection, Candida albicans [4, 6] [%] | Mice survival on the 7th day, absolute values (survival rate/infected animals), Candida albicans [4, 6] |
| --- | --- | --- | --- | --- | --- | --- | --- | --- | --- | --- | --- | --- | --- | --- | --- | --- |
| C[C@@H]1O[C@@H]1P(=O)(O)O [Fosfomycin/0.9% NaCl solution, fosfomycin] | 43.3 | (13/30) | 46.7 | (14/30) | 30.0 | (9/30) | 35.2 | (15/34) | 36.7 | (11/30) | 43.7 | (14/32) |  |  |  |  |
| CC[C@H]1OC(=O)[C@H](C)[C@@H](O[C@H]2C[C@@](C)(OC)[C@@H](O)[C@H](C)O2)[C@H](C)[C@@H](O[C@@H]2O[C@H](C)C[C@H](N(C)C)[C@H]2O)[C@](C)(O)C[C@@H](C)CN(C)[C@H](C)[C@@H](O)[C@]1(C)O [Azithromycin/0.9% NaCl solution, azithromycin] |  |  |  |  |  |  |  |  | 43.3 | (13/30) | 43.3 | (13/30) |  |  |  |  |
| CC(C)(O/N=C(\C(=O)N[C@@H]1C(=O)N2C(C(=O)[O-])=C(C[n+]3ccccc3)CS[C@H]12)c1csc(N)n1)C(=O)O [Ceftazidime/0.9% NaCl solution, ceftazidime] | 48.4 | (15/31) | 53.3 | (16/30) | 46.7 | (14/30) | 46.8 | (15/32) | 38.7 | (12/31) | 40.0 | (12/30) |  |  |  |  |
| C[C@@H](O)[C@H]1C(=O)N2C(C(=O)O)=C(S[C@@H]3CN[C@H](C(=O)N(C)C)C3)[C@H](C)[C@H]12 [Meropenem/0.9% NaCl solution, meropenem] | 73.8 | (31/42) | 78.0 | (32/41) | 71.8 | (23/32) | 74.4 | (32/43) | 70.9 | (22/31) | 73.8 | (31/42) |  |  |  |  |
| NCC[C@H](O)C(=O)N[C@@H]1C[C@H](N)[C@@H](O[C@H]2O[C@H](CN)[C@@H](O)[C@H](O)[C@H]2O)[C@H](O)[C@H]1O[C@H]1O[C@H](CO)[C@@H](O)[C@H](N)[C@H]1O.O=S(=O)(O)O.O=S(=O)(O)O [Amikacin sulfate/0.9% NaCl solution, amikacin sulfate] | 48.3 | (15/31) | 46.7 | (14/30) |  |  |  |  |  |  |  |  |  |  |  |  |
| CO/N=C(\C(=O)N[C@@H]1C(=O)N2C(C(=O)[O-])=C(C[N+]3(C)CCCC3)CS[C@H]12)c1csc(N)n1 [Cefepime/0.9% NaCl solution, cefepime] | 58.1 | (18/31) | 54.4 | (17/31) | 51.6 | (16/31) | 50.0 | (15/30) | 46.7 | (14/30) | 56.7 | (17/30) |  |  |  |  |
| CO/N=C(\C(=O)N[C@@H]1C(=O)N2C(C(=O)O)=C(COC(C)=O)CS[C@H]12)c1csc(N)n1 [Cefotaxime/0.9% NaCl solution, cefotaxime] | 37.5 | (12/32) | 43.7 | (14/32) |  |  |  |  | 43.7 | (14/32) | 42.8 | (15/35) |  |  |  |  |
| ceftriaxone [Ceftriaxone/5% dextrose solution] |  |  | 45.2 | (14/31) |  |  |  |  |  |  | 40.6 | (13/32) |  |  |  |  |
| voriconazole [Voriconazole/0.9% NaCl solution] |  |  |  |  |  |  |  |  |  |  |  |  | 45.1 | (14/31) | 46.7 | (14/30) |
| aztreonam [Aztreonam/0.9% NaCl solution] | 70.0 | (21/30) |  |  | 67.7 | (21/31) |  |  |  |  |  |  |  |  |  |  |
| CN[C@H](CC(C)C)C(=O)N[C@H]1C(=O)N[C@@H](CC(N)=O)C(=O)N[C@H]2C(=O)N[C@H]3C(=O)N[C@H](C(=O)N[C@H](C(=O)O)c4cc(O)cc(O)c4-c4cc3ccc4O)[C@H](O)c3ccc(c(Cl)c3)Oc3cc2cc(c3O[C@@H]2O[C@H](CO)[C@@H](O)[C@H](O)[C@H]2O[C@H]2C[C@](C)(N)[C@H](O)[C@H](C)O2)Oc2ccc(cc2Cl)[C@H]1O [Vancomycin/0.9% NaCl solution, vancomycin] |  |  |  |  |  |  |  |  | 71.4 | (30/42) | 77.5 | (31/40) |  |  |  |  |
